{"source": "ChEMBL document CHEMBL5543140", "about": "(J Med Chem, 2024)", "key": {"Mus musculus [1]": {"test_system": "Mus musculus", "test": "Psychedelic effect in C57BL/6J mouse assessed as number of head-twitch responses by visual observation at 3 mg/kg, po measured for 3 mins at 160 to 170 min", "assay_type": "functional", "conditions": "0.05 h"}, "[2]": {"molecular_target": "T1, 5-hydroxytryptamine receptor 2C (Homo sapiens, UniProt P28335)", "T1 sequence (P28335 whole entry)": "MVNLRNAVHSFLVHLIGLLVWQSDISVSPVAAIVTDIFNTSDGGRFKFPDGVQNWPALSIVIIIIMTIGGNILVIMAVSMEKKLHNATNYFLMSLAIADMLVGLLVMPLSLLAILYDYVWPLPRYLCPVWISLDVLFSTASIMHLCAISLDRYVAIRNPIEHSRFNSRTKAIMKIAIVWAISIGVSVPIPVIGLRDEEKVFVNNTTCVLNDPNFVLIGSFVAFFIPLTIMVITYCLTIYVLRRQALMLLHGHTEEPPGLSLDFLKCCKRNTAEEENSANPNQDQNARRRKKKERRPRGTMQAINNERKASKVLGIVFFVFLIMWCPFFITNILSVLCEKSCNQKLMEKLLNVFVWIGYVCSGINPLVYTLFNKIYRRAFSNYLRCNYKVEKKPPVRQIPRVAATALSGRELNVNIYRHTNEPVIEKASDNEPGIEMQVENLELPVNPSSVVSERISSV", "test": "Binding affinity to human [125I]LSD-labeled 5-HT2C receptor expressed in HEK293 cell membrane incubated for 60 mins", "assay_type": "cell membranes"}, "[3]": {"molecular_target": "5-hydroxytryptamine receptor 6 (Homo sapiens, UniProt P50406)", "sequence (P50406 whole entry)": "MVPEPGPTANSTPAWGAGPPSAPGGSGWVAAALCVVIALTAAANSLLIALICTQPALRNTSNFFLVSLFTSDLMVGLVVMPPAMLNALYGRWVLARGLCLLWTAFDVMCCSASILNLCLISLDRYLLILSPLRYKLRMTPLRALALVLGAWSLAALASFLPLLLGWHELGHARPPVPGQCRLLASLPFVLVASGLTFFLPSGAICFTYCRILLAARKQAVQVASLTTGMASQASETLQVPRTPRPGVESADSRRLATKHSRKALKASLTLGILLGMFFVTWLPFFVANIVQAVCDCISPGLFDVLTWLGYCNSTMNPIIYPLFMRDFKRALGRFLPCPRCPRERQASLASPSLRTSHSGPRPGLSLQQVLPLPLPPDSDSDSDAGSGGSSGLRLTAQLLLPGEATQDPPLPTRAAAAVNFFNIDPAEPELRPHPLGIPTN", "test": "Displacement of [3H]LSD from 5-HT6 receptor (unknown origin) assessed as inhibition binding"}, "[4]": {"molecular_target": "5-hydroxytryptamine receptor 7 (Homo sapiens, UniProt P34969)", "sequence (P34969 whole entry)": "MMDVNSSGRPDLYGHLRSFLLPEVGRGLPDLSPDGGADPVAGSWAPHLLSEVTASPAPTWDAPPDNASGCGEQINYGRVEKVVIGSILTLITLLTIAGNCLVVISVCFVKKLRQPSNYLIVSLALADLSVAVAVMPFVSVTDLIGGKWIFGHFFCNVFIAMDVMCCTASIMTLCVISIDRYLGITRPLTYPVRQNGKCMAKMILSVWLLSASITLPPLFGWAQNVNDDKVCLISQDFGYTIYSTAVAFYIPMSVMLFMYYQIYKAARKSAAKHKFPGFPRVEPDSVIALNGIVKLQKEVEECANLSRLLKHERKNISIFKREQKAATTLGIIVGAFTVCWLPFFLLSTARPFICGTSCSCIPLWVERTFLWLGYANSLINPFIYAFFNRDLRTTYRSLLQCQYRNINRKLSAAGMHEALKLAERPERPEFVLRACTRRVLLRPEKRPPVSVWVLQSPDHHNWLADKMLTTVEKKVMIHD", "test": "Displacement of [3H]LSD from 5-HT7 receptor (unknown origin) assessed as inhibition binding"}, "[5]": {"molecular_target": "5-hydroxytryptamine receptor 2B (Homo sapiens, UniProt P41595)", "sequence (P41595 whole entry)": "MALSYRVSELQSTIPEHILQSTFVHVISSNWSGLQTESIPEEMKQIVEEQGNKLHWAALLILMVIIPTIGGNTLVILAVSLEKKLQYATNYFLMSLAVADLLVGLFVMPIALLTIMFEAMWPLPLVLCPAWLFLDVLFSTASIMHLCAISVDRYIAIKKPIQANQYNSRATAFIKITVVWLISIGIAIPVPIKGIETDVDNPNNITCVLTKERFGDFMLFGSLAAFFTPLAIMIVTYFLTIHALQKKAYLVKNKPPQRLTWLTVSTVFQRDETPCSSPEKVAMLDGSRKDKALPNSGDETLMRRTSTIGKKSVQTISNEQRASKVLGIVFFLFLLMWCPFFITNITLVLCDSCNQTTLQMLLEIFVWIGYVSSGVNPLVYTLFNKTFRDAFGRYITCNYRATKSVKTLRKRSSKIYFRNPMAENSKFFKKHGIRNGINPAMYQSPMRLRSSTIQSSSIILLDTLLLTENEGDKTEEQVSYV", "test": "Agonist activity at human 5-HT2B receptor expressed in CHO cells assessed as maximal IP2 production measured after 30 mins incubation by HTRF assay relative to control", "assay_type": "functional, cell-based", "conditions": "read-out: EC50"}, "[6]": {"molecular_target": "Adrenergic receptor alpha-2 (Rattus norvegicus) (UniProt P22086+P19328+P22909)", "test": "Displacement of [3H]RX 821002 from rat cerebral cortex alpha2 adrenergic receptor assessed as remaining activity at 10 uM after 60 mins by scintillation counting method relative to control"}, "Mus musculus [7]": {"test_system": "Mus musculus", "test": "Psychedelic effect in C57BL/6J mouse assessed as induction of 5-HT2A receptor dependent maximal head-twitch responses by visual observation at 1 mg/kg, sc at 100 mins", "assay_type": "functional, organism-based"}, "Mus musculus [8]": {"test_system": "Mus musculus", "test": "Psychedelic effect in C57BL/6J mouse assessed as induction of 5-HT2A receptor dependent maximal head-twitch responses by visual observation at 1 to 3 mg/kg, sc at 40 mins post- administration measured upto 360 mins", "assay_type": "functional, organism-based", "conditions": "dose 1-3 mg/kg"}, "Mus musculus [9]": {"test_system": "Mus musculus", "test": "Locomotor activity in C57BL/6J mouse assessed as distance traveled at 3 mg/kg, sc measured for 15 to 25 mins (reference value: 1710 +/- 120 cm) by Ethovision tracking system", "assay_type": "functional", "conditions": "time 15-25 min"}, "Mus musculus [10]": {"test_system": "Mus musculus", "test": "Psychedelic effect in C57BL/6J mouse assessed as number of 5-HT2A receptor dependent head-twitch responses by visual observation at 3 mg/kg, sc in presence of ketanserin 1 mg/kg, sc measured after 24 hrs", "assay_type": "functional"}, "[11]": {"test": "Ex vivo binding in C57BL/6J mouse brain frontal cortex assessed as specific binding [3H]Cimbi-36 at 1 mg/kg, sc measured after 40 mins by liquid scintillation counting analysis (reference value: 1092 +/- 53)", "assay_type": "functional"}, "[12]": {"test": "Ex vivo binding in C57BL/6J mouse brain frontal cortex assessed as specific binding [3H]Cimbi-36 at 1 mg/kg, sc measured after 360 mins by liquid scintillation counting analysis (reference value: 1092 +/- 53)", "assay_type": "functional", "conditions": "6 h"}, "[13]": {"test": "Ex vivo binding in C57BL/6J mouse brain frontal cortex assessed as inhibition of [3H]Cimbi-36 binding at 1 mg/kg, sc measured after 5 mins by liquid scintillation counting analysis (reference value: 0%)", "assay_type": "functional"}, "Hippocampus [14]": {"test_system": "Hippocampus", "test": "Induction of neuroplasticity in C57BL/6J mouse assessed as increase in SYN1 mRNA expression in brain hippocampus at 3 mg/kg, sc single dose by RT-PCR analysis", "assay_type": "functional, organism-based"}, "Hippocampus [15]": {"test_system": "Hippocampus", "test": "Induction of neuroplasticity in C57BL/6J mouse assessed as increase in mTOR mRNA expression in brain hippocampus at 3 mg/kg, sc single dose by RT-PCR analysis", "assay_type": "functional, organism-based"}, "Hippocampus [16]": {"test_system": "Hippocampus", "test": "Induction of neuroplasticity in C57BL/6J mouse assessed as increase in c-Fos mRNA expression in brain hippocampus at 3 mg/kg, sc single dose by RT-PCR analysis", "assay_type": "functional, organism-based"}, "Hippocampus [17]": {"test_system": "Hippocampus", "test": "Induction of neuroplasticity in C57BL/6J mouse assessed as increase in mTOR mRNA expression in brain hippocampus at 0.3 mg/kg, sc single dose by RT-PCR analysis", "assay_type": "functional, organism-based"}, "Hippocampus [18]": {"test_system": "Hippocampus", "test": "Induction of neuroplasticity in C57BL/6J mouse assessed as increase in c-Fos mRNA expression in brain hippocampus at 0.3 mg/kg, sc single dose by RT-PCR analysis", "assay_type": "functional, organism-based"}, "[19]": {"test": "Metabolic stability in human hepatocytes assessed as half life at 10 uM", "assay_type": "ADME, cell-based, Hepatocyte"}, "[20]": {"test": "AUClast in Wistar rat plasma at 1 mg/kg, iv measured upto 48 hrs", "assay_type": "ADME, organism-based"}, "[21]": {"test": "Clearance in Wistar rat plasma at 1 mg/kg, iv measured upto 48 hrs", "assay_type": "ADME, organism-based"}, "[22]": {"test": "AUCinf in Wistar rat brain at 1 mg/kg, iv measured upto 48 hrs", "assay_type": "ADME, organism-based"}, "[23]": {"test": "Cmax in Wistar rat brain at 5 mg/kg, po measured upto 48 hrs", "assay_type": "ADME, organism-based"}, "[24]": {"test": "Brain to plasma ratio in Wistar rat at 5 mg/kg, po measured upto 48 hrs", "assay_type": "ADME, organism-based", "conditions": "brain and plasma, read-out: BPR"}, "[25]": {"test": "Tmax in male Sprague-Dawley rat plasma at 1 mg/kg, iv measured upto 8 hrs by LC-MS/MS analysis", "assay_type": "ADME, organism-based"}, "[26]": {"test": "AUClast in male Sprague-Dawley rat plasma at 1 mg/kg, iv measured upto 8 hrs by LC-MS/MS analysis", "assay_type": "ADME, organism-based"}, "[27]": {"test": "Volume of distribution at steady state in male Sprague-Dawley rat plasma at 1 mg/kg, iv measured upto 8 hrs by LC-MS/MS analysis", "assay_type": "ADME, organism-based", "conditions": "read-out: Vdss"}, "[28]": {"test": "Tmax in male Sprague-Dawley rat brain at 1 mg/kg, iv measured upto 8 hrs by LC-MS/MS analysis", "assay_type": "ADME, organism-based"}, "[29]": {"test": "Half life in male Sprague-Dawley rat brain at 1 mg/kg, iv measured upto 8 hrs by LC-MS/MS analysis", "assay_type": "ADME, organism-based"}, "[30]": {"test": "Brain to plasma ratio in male Sprague-Dawley rat at 1 mg/kg, iv measured upto 8 hrs by LC-MS/MS analysis", "assay_type": "ADME, organism-based", "conditions": "brain and plasma, read-out: BPR"}, "[31]": {"test": "AUClast in male Sprague-Dawley rat CSF at 1 mg/kg, iv measured upto 8 hrs by LC-MS/MS analysis", "assay_type": "ADME, organism-based, Cerebrospinal fluid"}, "[32]": {"test": "Half life in beagle dog at 0.4 mg/kg, iv measured upto 24 hrs", "assay_type": "ADME, organism-based, Canis lupus familiaris", "conditions": "in vivo"}, "[33]": {"molecular_target": "Alpha-2C adrenergic receptor (Homo sapiens, UniProt P18825)", "sequence (P18825 whole entry)": "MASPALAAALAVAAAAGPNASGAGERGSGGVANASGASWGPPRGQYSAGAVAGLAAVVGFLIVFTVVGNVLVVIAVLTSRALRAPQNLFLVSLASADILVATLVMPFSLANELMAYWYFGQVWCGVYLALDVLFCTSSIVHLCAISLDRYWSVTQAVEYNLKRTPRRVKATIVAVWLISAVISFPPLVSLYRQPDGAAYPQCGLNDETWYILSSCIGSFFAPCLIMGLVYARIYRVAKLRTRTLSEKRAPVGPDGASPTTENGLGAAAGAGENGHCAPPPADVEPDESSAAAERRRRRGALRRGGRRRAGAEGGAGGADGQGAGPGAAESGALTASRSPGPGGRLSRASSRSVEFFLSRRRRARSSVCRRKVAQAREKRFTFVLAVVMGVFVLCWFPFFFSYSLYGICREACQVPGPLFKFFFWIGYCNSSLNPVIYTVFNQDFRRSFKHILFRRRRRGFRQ", "test": "biochemical"}}, "note": "Active and inactive are the calls of the source. No cut-off for these calls is given here."}
{"compound": "COc1cc([Se]C(F)(F)F)c(OC)cc1CCN.Cl", "values": [{"measurement": "Activity", "setting": "Mus musculus [1]", "result": 29}, {"measurement": "Ki", "setting": "[2]", "result": 6.7, "unit": "nM"}, {"measurement": "Ki", "setting": "[3]", "result": 1300, "unit": "nM"}, {"measurement": "Ki", "setting": "[4]", "result": 4920, "unit": "nM"}, {"measurement": "EC50", "setting": "[5]", "result": 7.3, "unit": "nM"}, {"measurement": "Activity", "setting": "[6]", "result": 97, "unit": "%"}, {"measurement": "Activity", "setting": "Mus musculus [7]", "result": "Active"}, {"measurement": "Activity", "setting": "Mus musculus [8]", "result": "Active"}, {"measurement": "Activity", "setting": "Mus musculus [9]", "result": 2446, "unit": "cm"}, {"measurement": "Activity", "setting": "Mus musculus [10]", "result": 0.17}, {"measurement": "Activity", "setting": "[11]", "result": 732}, {"measurement": "Activity", "setting": "[12]", "result": 820}, {"measurement": "inhibition in vivo at 1 mg/kg", "setting": "[13]", "result": 13, "unit": "%"}, {"measurement": "Activity", "setting": "Hippocampus [14]", "result": "inactive"}, {"measurement": "Activity", "setting": "Hippocampus [15]", "result": "inactive"}, {"measurement": "Activity", "setting": "Hippocampus [16]", "result": "inactive"}, {"measurement": "Activity", "setting": "Hippocampus [17]", "result": "inactive"}, {"measurement": "Activity", "setting": "Hippocampus [18]", "result": "inactive"}, {"measurement": "half-life at 10 µM", "setting": "[19]", "result": 16, "unit": "h"}, {"measurement": "AUC(0-t) at 48 h", "setting": "[20]", "result": 42.2, "unit": "ng·h/mL"}, {"measurement": "clearance", "setting": "[21]", "result": 328, "unit": "mL/min/kg"}, {"measurement": "AUC(0-inf)", "setting": "[22]", "result": 3260, "unit": "ng·h/mL"}, {"measurement": "Cmax", "setting": "[23]", "result": 402, "unit": "ng/mL"}, {"measurement": "Kp at 48 h", "setting": "[24]", "result": 57.9}, {"measurement": "Tmax", "setting": "[25]", "result": 4.98, "unit": "min"}, {"measurement": "AUC(0-t) at 8 h", "setting": "[26]", "result": 207, "unit": "ng·h/mL"}, {"measurement": "Vd", "setting": "[27]", "result": 5.67, "unit": "L/kg"}, {"measurement": "Tmax", "setting": "[28]", "result": 0.25, "unit": "h"}, {"measurement": "half-life", "setting": "[29]", "result": 1.34, "unit": "h"}, {"measurement": "Kp at 8 h", "setting": "[30]", "result": 15.6}, {"measurement": "AUC(0-t) at 8 h", "setting": "[31]", "result": 49.9, "unit": "ng·h/mL"}, {"measurement": "half-life", "setting": "[32]", "result": 4.31, "unit": "h"}, {"measurement": "Ki", "setting": "[33]", "result": 108, "unit": "nM"}]}
